Data set [1] concerns Severe acute respiratory syndrome coronavirus 2. Nature of the data set: Inhibition of SARS-CoV-2 central replication transcription complex of nsp12/nsp7/nsp8(2) using RNA template as substrate assessed as decrease in RdRp polymerization at 62.5 to 1000 uM by RNA extension assay. The following applies: dose 62.5-1000 µM.
The test system is the same in data set [2]. Nature of the data set: Inhibition of SARS-CoV-2 central replication transcription complex of nsp12/nsp7/nsp8(2) using RNA template as substrate assessed as decrease in RdRp polymerization at 3 mM pretreated for 10 mins followed by NTP addition measured after 20 mins by RNA extension assay relative to control. Conditions: time 30.0 min.
The nature of data set [3]: Cytotoxicity against African green monkey Vero E6 cells incubated for 72 hrs by CCK8 assay. It is filed as toxicity, cell-based, Vero C1008. The following applies: chlorocebus sabaeus.
The next data set concerns SARS-CoV-2. Description: Antiviral activity against SARS-CoV-2 Omicron BA.5 infected in K18-hACE2 transgenic mouse assessed as protection against viral infection compound administered 2 hrs post-infection and continued till 7 days post-infection. The following applies: Severe acute respiratory syndrome coronavirus 2, dose 20-60 mg/kg, time 166.0 hrs. The class given is functional, organism-based.

The nature of data set [4]: Toxicity in K18-hACE2 transgenic mouse infected with SARS-CoV-2 Omicron BA.5 assessed as animal survival at 20 mg/kg compound administered 2 hrs post-infection and continued till 7 days post-infection. The class given is organism-based. Conditions: in vivo, 166 h.
Data set [5] can be described thus: Acute toxicity in Sprague-Dawley rat assessed as blood biochemical change at 500 to 2000 mg/kg, po measured for 14 days. It is filed as organism-based. The following applies: in vivo, 336 h, dose 500-2000 mg/kg, time 14 day.
Data set [6] is described as follows: Acute toxicity in Sprague-Dawley rat assessed as animal mortality at 500 to 2000 mg/kg, po measured for 14 days. It is filed as organism-based. The following applies: in vivo, 336 h, dose 500-2000 mg/kg, time 14 day.
Data set [7] is described as follows: Acute toxicity in Sprague-Dawley rat assessed as damage in liver at 500 to 2000 mg/kg, po measured for 14 days by H and E staining based analysis. The class given is organism-based. The following applies: in vivo, 336 h, dose 500-2000 mg/kg, time 14 day.
Data set [8] is described as follows: Prodrug conversion in Sprague-Dawley rat assessed as Cmax of nucleoside triphosphate at 40 mg/kg, po measured after 0.5 to 24 hrs by LC-MS/MS analysis. It is filed as ADME, organism-based. The following applies: in vivo, time 0.5-24 hrs.
Data set [9] can be described thus: Toxicity in K18-hACE2 transgenic mouse infected with SARS-CoV-2 Omicron BA.5 assessed as body weight change at 40 to 60 mg/kg compound administered 2 hrs post-infection and continued till 7 days post-infection. The class given is organism-based. The following applies: in vivo, 166 h, dose 40-60 mg/kg.
Data set [10] in a line: Acute toxicity in Sprague-Dawley rat assessed as side effects at 500 to 2000 mg/kg, po measured for 14 days. It is filed as organism-based. Conditions: in vivo, 336 h, dose 500-2000 mg/kg, time 14 day.
Data set [11] is described as follows: Prodrug conversion in Sprague-Dawley rat assessed as half life of nucleoside triphosphate at 40 mg/kg, po measured after 0.5 to 24 hrs by LC-MS/MS analysis. The class given is ADME, organism-based. The following applies: in vivo, time 0.5-24 hrs.
Data set [12] is described as follows: Acute toxicity in Sprague-Dawley rat assessed as hematological change at 500 to 2000 mg/kg, po measured for 14 days. It is filed as organism-based. Conditions: in vivo, 336 h, dose 500-2000 mg/kg, time 14 day.
Data set [13] in a line: Prodrug conversion in Sprague-Dawley rat assessed as Tmax of nucleoside triphosphate at 40 mg/kg, po measured after 0.5 to 24 hrs by LC-MS/MS analysis. It is filed as ADME, organism-based. The following applies: in vivo, time 0.5-24 hrs.
Data set [14] can be described thus: Acute toxicity in Sprague-Dawley rat assessed as damage in lung at 500 to 2000 mg/kg, po measured for 14 days by H and E staining based analysis. The class given is organism-based. Conditions: in vivo, 336 h, dose 500-2000 mg/kg, time 14 day.
Data set [15] addresses Nucleoprotein (Severe acute respiratory syndrome coronavirus 2) (UniProt P0DTC9). Description: Inhibition of SARS-CoV-2 N protein by Western blot analysis. Conditions: dose 1-250 nM. In general terms: A western blot detects proteins with antibodies after separation by electrophoresis.
The nature of data set [16]: Acute toxicity in Sprague-Dawley rat assessed as body weight change at 500 to 2000 mg/kg, po measured for 14 days. It is filed as organism-based. Conditions: in vivo, 336 h, dose 500-2000 mg/kg, time 14 day.
Data set [17] in a line: Prodrug conversion in Sprague-Dawley rat assessed as AUClast of nucleoside triphosphate at 40 mg/kg, po measured after 0.5 to 24 hrs by LC-MS/MS analysis. It is filed as ADME, organism-based. Conditions: in vivo, time 0.5-24 hrs.
Data set [18] is described as follows: Acute toxicity in Sprague-Dawley rat assessed as damage in kidney at 500 to 2000 mg/kg, po measured for 14 days by H and E staining based analysis. Conditions: in vivo, 336 h, dose 500-2000 mg/kg, time 14 day. It is filed as organism-based.
The nature of data set [19]: Acute toxicity in Sprague-Dawley rat assessed as drug tolerance upto 2000 mg/kg, po measured for 14 days. The class given is organism-based. Conditions: in vivo, 336 h, time 14 day.
The nature of data set [20]: Acute toxicity in Sprague-Dawley rat assessed as damage in heart at 500 to 2000 mg/kg, po measured for 14 days by H and E staining based analysis. The class given is organism-based. Conditions: in vivo, 336 h, dose 500-2000 mg/kg, time 14 day.
The nature of data set [21]: Prodrug conversion in Sprague-Dawley rat assessed as AUC (0 to infinity) of nucleoside triphosphate at 40 mg/kg, po measured after 0.5 to 24 hrs by LC-MS/MS analysis. The class given is ADME, organism-based. The following applies: in vivo, time 0.5-24 hrs.
Data set [22] is described as follows: Cytotoxicity against HPAEpiC cells incubated for 72 hrs by CCK8 assay. The class given is toxicity, cell-based. Conditions: human. A general note: Tetrazolium assays rely on reduction of a dye to a coloured formazan, in cell work by metabolically active cells.
A short description of data set [23]: Acute toxicity in Sprague-Dawley rat assessed as damage in spleen at 500 to 2000 mg/kg, po measured for 14 days by H and E staining based analysis. It is filed as organism-based. The following applies: in vivo, 336 h, dose 500-2000 mg/kg, time 14 day.
The nature of data set [24]: Toxicity in K18-hACE2 transgenic mouse infected with SARS-CoV-2 Omicron BA.5 assessed as animal survival at 40 to 60 mg/kg compound administered 2 hrs post-infection and continued till 7 days post-infection. The class given is organism-based. The following applies: in vivo, 166 h, dose 40-60 mg/kg.
In another data set the test system is Vero C1008. Description: Cytotoxicity against African green monkey Vero E6 cells at 100 uM incubated for 72 hrs by CCK8 assay. The class given is toxicity, cell-based. The following applies: chlorocebus sabaeus, vero c1008, 72 h.

Results on three compounds are retold here after ChEMBL document CHEMBL6087487, “Discovery of a 2'-α-Fluoro-2'-β-C-(fluoromethyl) Purine Nucleotide Prodrug as a Potential Oral Anti-SARS-CoV-2 Agent” (J Med Chem, 2025).

Calls of active or inactive are those of the source. The rule behind the calls is not given here.

The term inhibition denotes the relative decrease from the control value, in per cent. Consider `CNc1nc(N)nc2c1ncn2[C@@H]1O[C@H](COP(=O)(O)OP(=O)(O)OP(=O)(O)OP(=O)(O)O)[C@@H](O)[C@]1(F)CF`, for which, in data set [1], the inhibition entry is “inactive”. Further, the inhibition in data set [2] worked out at 100%.

For orientation: CC50 means the concentration giving 50% cytotoxicity. In data set [3], `CCC(CC)COC(=O)[C@H](C)N[P@](=O)(OC[C@H]1O[C@@](C#N)(c2ccc3c(N)ncnn23)[C@H](O)[C@@H]1O)Oc1ccccc1` [REMDESIVIR] registered a CC50 at 72 h of 42 µM.

The Cmax is the maximum level reached in the sampled fluid or tissue. For orientation: Tmax means the time from dosing to the highest level. In the case of `CNc1nc(N)nc2c1ncn2[C@@H]1O[C@H](CO[P@@](=O)(N[C@@H](C)C(=O)OC(C)C)Oc2ccccc2)[C@@H](O)[C@]1(F)CF.O=S(=O)(O)O`, the Activity result was “Dose-dependent-effect” in the data set with SARS-CoV-2; “Non-toxic” in [5]; “Non-toxic” in data set [6]; “Non-toxic” in data set [7]; “Non-toxic” in data set [9]; “Non-toxic” in data set [10]. The Activity entry in data set [12], in [14], in data set [16], in data set [18], in data set [19] and in data set [20] was “Non-toxic” in each case. Further, the Activity result (in data set [23]; in the data set with Vero C1008) was “Non-toxic” each time. Also, the Survival in [4] is recorded as over 50%; in data set [24], 100%. For the same compound, the Cmax in data set [8] came out at 6.5 µg/g. In addition, the t1/2 in [11] was determined as 45.7 h. Moreover, the Tmax in data set [13] is 2.67 h. The inhibition entry in data set [15] was “Dose-dependent-effect”. In [17], the AUClast is 66.13 µg·h/g. Further, in data set [21], the AUC stood at 223 µg·h/g. Moreover, the CC50 at 72 h in data set [22] was over 200 µM.
